± gives the standard deviation of the averaged measurements.
System: HeLa
Experiment: cell viability (CellTiter-Glo) relative to median of lowest-dilution wells of all drugs (fraction); higher = more viable cells
Method: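 HeLa control and CRISPR DDX11 knockout cells were seeded in 384-well plates and incubated for 72 h with each of 64 […] drugs at six concentrations. Viability was read with CellTiter-Glo and normalised to the median of the lowest (6th) dilution wells of all drugs. Two biological replicates (BR1, BR2) are averaged; the concentration unit is not stated.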

[1] = drug concentration (unit not stated): 0.01, genotype: DDX11 knockout
[2] = drug concentration (unit not stated): 0.01, genotype: control (DDX11 wild type)
[3] = drug concentration (unit not stated): 0.04, genotype: DDX11 knockout
[4] = drug concentration (unit not stated): 0.04, genotype: control (DDX11 wild type)
[5] = drug concentration (unit not stated): 0.12, genotype: DDX11 knockout
[6] = drug concentration (unit not stated): 0.12, genotype: control (DDX11 wild type)
[7] = drug concentration (unit not stated): 0.37, genotype: DDX11 knockout
[8] = drug concentration (unit not stated): 0.37, genotype: control (DDX11 wild type)
[9] = drug concentration (unit not stated): 1.11, genotype: DDX11 knockout
[10] = drug concentration (unit not stated): 1.11, genotype: control (DDX11 wild type)
[11] = drug concentration (unit not stated): 3.33, genotype: DDX11 knockout
[12] = drug concentration (unit not stated): 3.33, genotype: control (DDX11 wild type)
[13] = drug concentration (unit not stated): 10, genotype: DDX11 knockout
[14] = drug concentration (unit not stated): 10, genotype: control (DDX11 wild type)

COc1cc2c(cc1O)CCN[C@]21CS[C@@H]2c3c(OC(C)=O)c(C)c4c(c3[C@H](COC1=O)N1[C@@H]2[C@H]2c3c(cc(C)c(OC)c3O)C[C@@H]([C@@H]1O)N2C)OCO4 [Trabectedin (Yondelis)]
cell viability [1]: 1.061 ± 0.0098 | cell viability [2]: 1.05 ± 0.0085 | cell viability [3]: 1.01 ± 0.044 | cell viability [4]: 1 ± 0.031 | cell viability [5]: 1 ± 0.034 | cell viability [6]: 1.02 ± 0.034 | cell viability [7]: 0.9874 ± 0.0059 | cell viability [8]: 1.02 ± 0.025 | cell viability [9]: 0.913 ± 0.14 | cell viability [10]: 1.034 ± 0.0075

CC(=O)Nc1cccc(-n2c(=O)n(C3CC3)c(=O)c3c(Nc4ccc(I)cc4F)n(C)c(=O)c(C)c32)c1 [Trametinib]
cell viability [3]: 0.814 ± 0.081 | cell viability [4]: 0.908 ± 0.2 | cell viability [5]: 0.773 ± 0.058 | cell viability [6]: 0.914 ± 0.18 | cell viability [7]: 0.861 ± 0.12 | cell viability [8]: 0.976 ± 0.28 | cell viability [9]: 0.736 ± 0.17 | cell viability [10]: 0.952 ± 0.31 | cell viability [11]: 0.613 ± 0.23 | cell viability [12]: 0.968 ± 0.34 | cell viability [13]: 0.46 ± 0.03 | cell viability [14]: 0.706 ± 0.17

CC[C@]1(O)C[C@@H]2CN(CCc3c([nH]c4ccccc34)[C@@](C(=O)OC)(c3cc4c(cc3OC)N(C)[C@H]3[C@@](O)(C(=O)OC)[C@H](OC(C)=O)[C@]5(CC)C=CCN6CC[C@]43[C@@H]65)C2)C1 [Vinblastine]
cell viability [1]: 0.751 ± 0.37 | cell viability [2]: 0.802 ± 0.21 | cell viability [3]: 0.538 ± 0.36 | cell viability [4]: 0.799 ± 0.44 | cell viability [5]: 0.374 ± 0.092 | cell viability [6]: 0.441 ± 0.2 | cell viability [7]: 0.392 ± 0.0058 | cell viability [8]: 0.31 ± 0.042 | cell viability [9]: 0.3923 ± 0.00082 | cell viability [10]: 0.355 ± 0.12 | cell viability [11]: 0.401 ± 0.042 | cell viability [12]: 0.359 ± 0.089

CNC(=O)c1cccc(-c2ccc3c(N4CCOC[C@@H]4C)nc(N4CCOC[C@@H]4C)nc3n2)c1 [Vistusertib (AZD2014)]
cell viability [3]: 0.902 ± 0.082 | cell viability [4]: 0.938 ± 0.15 | cell viability [5]: 0.777 ± 0.13 | cell viability [6]: 0.973 ± 0.3 | cell viability [7]: 0.668 ± 0.16 | cell viability [8]: 0.917 ± 0.29 | cell viability [9]: 0.449 ± 0.081 | cell viability [10]: 0.637 ± 0.16 | cell viability [11]: 0.356 ± 0.03 | cell viability [12]: 0.533 ± 0.17 | cell viability [13]: 0.344 ± 0.048 | cell viability [14]: 0.436 ± 0.17

O=C(CCCCCCC(=O)Nc1ccccc1)NO [Vorinostat (SAHA)]
cell viability [1]: 1.01 ± 0.075 | cell viability [2]: 1.03 ± 0.026 | cell viability [3]: 0.974 ± 0.013 | cell viability [4]: 0.9673 ± 0.0094 | cell viability [5]: 0.995 ± 0.052 | cell viability [6]: 0.971 ± 0.031 | cell viability [7]: 0.771 ± 0.18 | cell viability [8]: 0.825 ± 0.27 | cell viability [9]: 0.317 ± 0.41 | cell viability [10]: 0.44 ± 0.58

Source: the supplement of paper PMC8092582
